These results are taken from PMC7035281 (Nature Communications, 2020).

For assay [1], the target named is T1, LeuT (LeuTWT) (Aquifex aeolicus, UniProt O67854).
T1 construct: gene snf; full length, C-terminal thrombin site and 8xHis tag (pET16b), E. coli C41(DE3), purified in DDM; crystal of W8A a dimer in the asymmetric unit, residues 13-511 and 13-507 visible; smFRET variant from pQO18-TEV vector, His-tagged
As to the kind of experiment: scintillation proximity saturation binding, purified protein in DDM. Background: SPA uses beads or plates that emit light when radiolabelled molecules are held near them.

Assay [2] has as its target T2, LeuT (LeuTWT) (Aquifex aeolicus, UniProt O67854, W8A).
T2 construct: gene snf; full length, C-terminal thrombin site and 8xHis tag (pET16b), E. coli C41(DE3), purified in DDM; crystal of W8A a dimer in the asymmetric unit, residues 13-511 and 13-507 visible; smFRET variant from pQO18-TEV vector, His-tagged
As to the kind of experiment: scintillation proximity saturation binding, purified protein in DDM; X-ray structure […] Å.

As usually defined, the Kd is the constant that tells how readily two partners part at equilibrium. The low end stands for a tighter complex, the high end for a looser complex. With `N[C@@H](Cc1ccccc1)C(=O)O` [L-Phe], the Kd in assay [1] is 0.898 ± 1.13 µM; in assay [2], 0.796 ± 0.139 µM.
